Assays:
Type in all cases: in vivo
Solanum nigrum = assay: Test of herbicidal activity, post-seedling stem and leaf spray in greenhouse, Solanum nigrum; conditions: for herbicidal activity against Solamum nigrum compared with Control compounds A, B and C: at different doses, summary of Table 5; for Solanum nigrum (%) control effect: post-seedling stem and leaf spray
Experimental: (§1) Seeds of broadleaf weeds (abutilon, Solanum nigrum) or gramineous weeds (crabgrass, barnyard grass) were sown into nutrient soil in plastic cups, respectively, and then covered with soil, compacted, watered, and further cultivated in a greenhouse by conventional methods. The stems and leaves of the weeds were sprayed when the weeds reached the 2- to 3-leaf stage. The test compounds of the present application were dissolved in acetone respectively, followed by addition of Tween 80. The solution was diluted with a certain amount of water to a certain solubility, and then sprayed onto the plants using a spray tower. The test was repeated three times. After drying naturally in the shade, the plants were put in a greenhouse and managed according to conventional methods. The growth and development of weeds were observed, and the control effect of the test agent on weeds was checked visually periodically, which was expressed by 0-100%, with “0” representing no control effect, and “100%” representing complete killing or severe inhibition.

crabgrass = assay: Test of herbicidal activity, post-seedling stem and leaf spray in greenhouse, crabgrass; conditions: for herbicidal activity against crabgrass compared with Control compounds A, B and C: at different doses, summary of Table 5; for Crabgrass (%) control effect: post-seedling stem and leaf spray
Experimental: as §1

abutilon = assay: Test of herbicidal activity, post-seedling stem and leaf spray in greenhouse, abutilon; conditions: for herbicidal activity against abutilon compared with Control compounds A, B and C: at different doses, summary of Table 5; for Abutilon (%) control effect: post-seedling stem and leaf spray
Experimental: as §1

barnyard grass = assay: Test of herbicidal activity, post-seedling stem and leaf spray in greenhouse, barnyard grass; conditions: for herbicidal activity against barnyard grass compared with Control compounds A, B and C: at different doses, summary of Table 5; for Barnyard grass (%) control effect: post-seedling stem and leaf spray
Experimental: as §1

rice = assay: Safety testing on rice, stem and leaf spray in greenhouse; conditions: for inhibitory effect on rice (crop safety): at different doses, as compared to Control compounds A, B, and C, summary of Table 6; for Rice (%) safety (crop damage): stem and leaf spray
Experimental: (§2) The seeds of corn and rice were sown into nutrient soil in plastic cups, respectively, then covered with soil, compacted, watered, and further cultivated in a greenhouse by conventional methods. The stems and leaves of the crops were sprayed when the crops reached the 2- to 3-leaf stage. The test compounds of the present application were dissolved in acetone, followed by addition of Tween 80. The solution was then diluted with a certain amount of water to a certain solubility, and sprayed onto the plants using a spray tower. The test was repeated three times. After drying naturally in the shade, the plants were put in a greenhouse and managed according to conventional methods. The growth and development of corn and rice were observed, and the safety of the test agent on corn and rice was checked visually periodically. A safety grading standard was represented by 0-100%, with “O” representing no damage to crops, and “100%” representing complete killing or severe inhibition of crops.

corn = assay: Safety testing on corn, stem and leaf spray in greenhouse; conditions: for inhibitory effect on corn (crop safety): at different doses, as compared to Control compounds A, B, and C, summary of Table 6; for Corn (%) safety (crop damage): stem and leaf spray
Experimental: as §2

[1] = dose 300 g a.i/ha, 0 = no control effect, 100% = complete killing or severe inhibition
[2] = dose 300 g a.i/ha, 0 = no damage to crops, 100% = complete killing or severe inhibition

Row | Structure (SMILES) | herbicidal activity against Solamum nigrum compared with Control compounds A, B and C (Solanum nigrum) | Solanum nigrum (%) control effect (Solanum nigrum; dose 37.5 g a.i/ha) | Solanum nigrum (%) control effect (Solanum nigrum; dose 75 g a.i/ha) | Solanum nigrum (%) control effect (Solanum nigrum; dose 150 g a.i/ha) | Solanum nigrum (%) control effect (Solanum nigrum; dose 300 g a.i/ha) | herbicidal activity against crabgrass compared with Control compounds A, B and C (crabgrass) | Crabgrass (%) control effect (crabgrass; dose 37.5 g a.i/ha) | Crabgrass (%) control effect (crabgrass; dose 75 g a.i/ha) | Crabgrass (%) control effect (crabgrass; dose 150 g a.i/ha) | Crabgrass (%) control effect (crabgrass; dose 300 g a.i/ha) | herbicidal activity against abutilon compared with Control compounds A, B and C (abutilon) | Abutilon (%) control effect (abutilon; dose 37.5 g a.i/ha) | Abutilon (%) control effect (abutilon; dose 75 g a.i/ha) | Abutilon (%) control effect (abutilon; dose 150 g a.i/ha) | Abutilon (%) control effect (abutilon; [1]) | herbicidal activity against barnyard grass compared with Control compounds A, B and C (barnyard grass) | Barnyard grass (%) control effect (barnyard grass; dose 37.5 g a.i/ha) | Barnyard grass (%) control effect (barnyard grass; dose 75 g a.i/ha) | Barnyard grass (%) control effect (barnyard grass; dose 150 g a.i/ha) | Barnyard grass (%) control effect (barnyard grass; dose 300 g a.i/ha) | further results
1 | Cc1nn(Cc2c(S(C)(=O)=O)ccc(C(=O)c3c(C)nn(C)c3OC(=O)c3cn(C)nc3C(F)(F)F)c2Cl)c(=O)o1 [Compound 166] | better herbicidal activities | 60% | 85% | 90% | 93% | better herbicidal activities | 50% | 75% | 80% | 85% | better herbicidal activities | 65% | 88% | 92% | 95% | better herbicidal activities | 55% | 80% | 85% | 90% | 
2 | Cc1nn(Cc2c(S(C)(=O)=O)ccc(C(=O)C3C(=O)CCCC3=O)c2Cl)c(=O)o1 [Compound 1] | better herbicidal activities | 60% | 90% | 95% | 100% | better herbicidal activities | 50% | 75% | 85% | 95% | better herbicidal activities | 65% | 90% | 98% | 100% | better herbicidal activities | 55% | 80% | 90% | 98% | 
3 | CCS(=O)(=O)c1ccc(C(=O)C2C(=O)CCCC2=O)c(Cl)c1Cn1nc(C)oc1=O [Compound 6] |  |  |  |  |  |  |  |  |  |  |  |  |  |  |  |  |  |  |  |  | inhibitory effect on rice (crop safety) (rice): no significant inhibitory effect; Rice (%) safety (crop damage) (rice; dose 37.5 g a.i/ha): 0%; Rice (%) safety (crop damage) (rice; dose 75 g a.i/ha): 0%; Rice (%) safety (crop damage) (rice; dose 150 g a.i/ha): 5%; Rice (%) safety (crop damage) (rice; dose 300 g a.i/ha): 10%; inhibitory effect on corn (crop safety) (corn): no significant inhibitory effect; Corn (%) safety (crop damage) (corn; dose 37.5 g a.i/ha): 0%; Corn (%) safety (crop damage) (corn; dose 75 g a.i/ha): 0%; Corn (%) safety (crop damage) (corn; dose 150 g a.i/ha): 0%; Corn (%) safety (crop damage) (corn; [2]): 5%
4 | Cc1nn(Cc2c(S(=O)(=O)C(C)C)ccc(C(=O)c3c(C)nn(C)c3O)c2Cl)c(=O)o1 [Compound 100, 1,3-dimethyl-4-{2-chloro-3-[(5-methyl-2-oxo-1,3,4-oxadiazol-3 (2H)yl)methyl]-4-isopropylsulfonylbenzoyl}-5-hydroxypyrazole] |  |  |  |  |  |  |  |  |  |  |  |  |  |  |  |  |  |  |  |  | inhibitory effect on rice (crop safety) (rice): no significant inhibitory effect; Rice (%) safety (crop damage) (rice; dose 37.5 g a.i/ha): 0%; Rice (%) safety (crop damage) (rice; dose 75 g a.i/ha): 0%; Rice (%) safety (crop damage) (rice; dose 150 g a.i/ha): 0%; Rice (%) safety (crop damage) (rice; dose 300 g a.i/ha): 2%; inhibitory effect on corn (crop safety) (corn): no significant inhibitory effect; Corn (%) safety (crop damage) (corn; dose 37.5 g a.i/ha): 0%; Corn (%) safety (crop damage) (corn; dose 75 g a.i/ha): 0%; Corn (%) safety (crop damage) (corn; dose 150 g a.i/ha): 0%; Corn (%) safety (crop damage) (corn; [2]): 0%
5 | Cc1nn(Cc2c(S(C)(=O)=O)ccc(C(=O)c3c(C)nn(C)c3OC(=O)c3c(C(F)(F)F)nn(C)c3Cl)c2Cl)c(=O)o1 [Compound 204] | better herbicidal activities | 52% | 70% | 90% | 97% | better herbicidal activities | 45% | 64% | 80% | 88% | better herbicidal activities | 55% | 80% | 90% | 98% | better herbicidal activities | 50% | 70% | 85% | 90% | 
6 | Cc1nn(Cc2c(S(C)(=O)=O)ccc(C(=O)c3c(C)nn(C)c3OC(=O)c3cnn(C)c3Cl)c2Cl)c(=O)o1 [Compound 218] | better herbicidal activities | 50% | 70% | 90% | 95% | better herbicidal activities | 45% | 65% | 80% | 85% | better herbicidal activities | 55% | 80% | 90% | 95% | better herbicidal activities | 50% | 70% | 85% | 90% | 
7 | CCOC1=C(C(=O)c2ccc(S(C)(=O)=O)c(Cn3nc(C)oc3=O)c2Cl)C(=O)CCC1 [Compound 32] | better herbicidal activities | 60% | 90% | 95% | 100% | better herbicidal activities | 50% | 75% | 85% | 90% | better herbicidal activities | 65% | 90% | 98% | 100% | better herbicidal activities | 55% | 80% | 90% | 95% | 

Reference: patent US20250333388A1, “OXADIAZOLONE COMPOUNDS AND HERBICIDAL COMPOSITIONS AND USES THEREOF” (SHANDONG BINNONG TECHNOLOGY CO., LTD., priority 2023, published 2025)
